Results published in patent publication US10947389B2, “Composition, film, near infrared cut filter, laminate, pattern forming method, solid image pickup element, image display device, infrared sensor, and color filter” (FUJIFILM Corporation, priority 2016, dated 2021).

Tests used:
[1] = Evaluation of solubility in water at 23° C.; type: physicochemical; details: stirred for 1 hour
Method: Each of the compounds was added to water at 23° C. under the atmospheric pressure, the components were stirred for 1 hour, and the solubility of the compound in water was obtained. The solubility of the compound was evaluated based on the following criteria.
A: the solubility in water at 23° C. was 0.1 mass % or lower
B: the solubility in water at 23° C. was higher than 0.1 mass % and 1 mass % or lower
C: the solubility in water at 23° C. was higher than 1 mass %

[2] = Evaluation of absorption maximum and absorbance ratio (500 nm/λmax) in solution; type: physicochemical; details: for Absorbance Ratio (500 nm/λmax) / Absorption Maximum (nm): solvent chloroform
From the text: In this specification, “having an absorption maximum in a wavelength range of 650 to 1000 nm” denotes having a maximum absorbance in a wavelength range of 650 to 1000 nm in an absorption spectrum of the near infrared absorbing compound in a solution. Examples of a measurement solvent used for the measurement of the absorption spectra of the near infrared absorbing compound in the solution include chloroform, methanol, dimethyl sulfoxide, ethyl acetate, and tetrahydrofuran. In the case of a compound which is soluble in chloroform, chloroform is used as the measurement solvent. In the case of a compound which is not soluble in chloroform, methanol is used. In addition, In the case of a compound which is not soluble in chloroform and methanol, dimethyl sulfoxide is used.
Each of the compounds was dissolved in a measurement solvent shown in the following tables (concentration: 2.5×10^−6 mol/L) to measure an absorption spectrum (optical path length: 10 mm).
In addition, an absorbance ratio (500 nm/λmax) as a value obtained by dividing an absorbance at a wavelength of 500 nm by an absorbance at an absorption maximum was evaluated based on the following criteria.
A: the absorbance ratio (500 nm/λmax) was 0.04 or lower
B: the absorbance ratio (500 nm/λmax) was higher 0.04 and 0.08 or lower
C: the absorbance ratio (500 nm/λmax) was higher than 0.08

Compound	Absorption Maximum (nm) [2]	Second Near Infrared Absorbing Compound λmax (nm) ([2]; absorption maximum of the second near infrared absorbing compound)	λmax (nm) of Second Near Infrared Absorbing Compound ([2]; as listed in Table 58)	Solubility [1]	Absorbance Ratio (500 nm/λmax) [2]
CC(C)CCCCCCCC(CCCCCC(C)C)COc1cccc(-c2c3c(=C(C#N)c4nc5c(ccc6ccccc65)o4)n(B(c4ccccc4)c4ccccc4)c(-c4cccc(OCC(CCCCCCCC(C)C)CCCCCC(C)C)c4)c3c(=C(C#N)c3nc4c(ccc5ccccc54)o3)n2B(c2ccccc2)c2ccccc2)c1 (centres unmarked) [II-715]	769 nm	–	–	A (the solubility in water at 23 °C was 0.1 mass % or lower)	A (the absorbance ratio (500 nm/λmax) was 0.04 or lower)
Cc1ccc2oc(/C(C#N)=c3/c4c(-c5cccc(OCC(CCC(C)CC(C)(C)C)C(C)CC(C)(C)C)c5)n(B5Oc6ccccc6O5)/c(=C(/C#N)c5nc6ccccc6s5)c4c(-c4cccc(OCC(CCC(C)CC(C)(C)C)C(C)CC(C)(C)C)c4)n3B3Oc4ccccc4O3)nc2c1 (centres unmarked) [IV-92]	701 nm	702 nm	701 nm	A (the solubility in water at 23 °C was 0.1 mass % or lower)	A (the absorbance ratio (500 nm/λmax) was 0.04 or lower)
CC(CCC(COc1cccc(-c2[nH]/c(=C(/C#N)c3cnc4ccccc4n3)c3c(-c4cccc(OCC(CCC(C)CC(C)(C)C)C(C)CC(C)(C)C)c4)[nH]/c(=C(/C#N)c4cnc5ccccc5n4)c23)c1)C(C)CC(C)(C)C)CC(C)(C)C (centres unmarked) [PP-1]	739 nm	–	–	A (the solubility in water at 23 °C was 0.1 mass % or lower)	B (the absorbance ratio (500 nm/λmax) was higher 0.04 and 0.08 or lower)

More lines, main results first:

Absorption Maximum (nm) [2]	Second Near Infrared Absorbing Compound λmax (nm) ([2]; absorption maximum of the second near infrared absorbing compound)	λmax (nm) of Second Near Infrared Absorbing Compound ([2]; as listed in Table 58)	Compound	Solubility [1]	Absorbance Ratio (500 nm/λmax) [2]
863 nm	–	–	CC(C)CCCCCCCC(CCCCCC(C)C)COc1ccc(-c2c3c(=C(C#N)c4cnc5ccccc5n4)n(B(c4ccccc4)c4ccccc4)c(-c4ccc(OCC(CCCCCCCC(C)C)CCCCCC(C)C)cc4)c3c(=C(C#N)c3cnc4ccccc4n3)n2B(c2ccccc2)c2ccccc2)cc1 (centres unmarked) [III-9]	A (the solubility in water at 23 °C was 0.1 mass % or lower)	A (the absorbance ratio (500 nm/λmax) was 0.04 or lower)
863 nm	–	–	CC(CCC(COc1cccc(-c2c3/c(=C(\C#N)c4cnc5ccccc5n4)n(B(c4ccccc4)c4ccccc4)c(-c4cccc(OCC(CCC(C)CC(C)(C)C)C(C)CC(C)(C)C)c4)c3/c(=C(\C#N)c3cnc4ccccc4n3)n2B(c2ccccc2)c2ccccc2)c1)C(C)CC(C)(C)C)CC(C)(C)C (centres unmarked) [III-28]	A (the solubility in water at 23 °C was 0.1 mass % or lower)	A (the absorbance ratio (500 nm/λmax) was 0.04 or lower)
863 nm	–	–	CCCCCCCCCCC(CCCCCCCC)COc1cccc(-c2c3c(=C(C#N)c4cnc5ccccc5n4)n(B(c4ccccc4)c4ccccc4)c(-c4cccc(OCC(CCCCCCCC)CCCCCCCCCC)c4)c3c(=C(C#N)c3cnc4ccccc4n3)n2B(c2ccccc2)c2ccccc2)c1 (centres unmarked) [III-29]	A (the solubility in water at 23 °C was 0.1 mass % or lower)	A (the absorbance ratio (500 nm/λmax) was 0.04 or lower)
885 nm	–	–	CC(C)CCCCCCCC(CCCCCC(C)C)COc1ccc(-c2c3c(=C(C#N)c4cnc5cc(Cl)c(Cl)cc5n4)n(B(c4ccccc4)c4ccccc4)c(-c4ccc(OCC(CCCCCCCC(C)C)CCCCCC(C)C)cc4)c3c(=C(C#N)c3cnc4cc(Cl)c(Cl)cc4n3)n2B(c2ccccc2)c2ccccc2)cc1 (centres unmarked) [III-167]	A (the solubility in water at 23 °C was 0.1 mass % or lower)	A (the absorbance ratio (500 nm/λmax) was 0.04 or lower)
885 nm	–	–	CC(CCC(COc1ccc(-c2c3/c(=C(\C#N)c4cnc5cc(Cl)c(Cl)cc5n4)n(B(c4ccccc4)c4ccccc4)c(-c4ccc(OCC(CCC(C)CC(C)(C)C)C(C)CC(C)(C)C)cc4)c3/c(=C(\C#N)c3cnc4cc(Cl)c(Cl)cc4n3)n2B(c2ccccc2)c2ccccc2)cc1)C(C)CC(C)(C)C)CC(C)(C)C (centres unmarked) [III-168]	A (the solubility in water at 23 °C was 0.1 mass % or lower)	A (the absorbance ratio (500 nm/λmax) was 0.04 or lower)
872 nm	–	–	Cc1cc2ncc(/C(C#N)=c3/c4c(-c5cccc(OCC(CCC(C)CC(C)(C)C)C(C)CC(C)(C)C)c5)n(B(c5ccccc5)c5ccccc5)/c(=C(/C#N)c5cnc6cc(C)c(C)cc6n5)c4c(-c4cccc(OCC(CCC(C)CC(C)(C)C)C(C)CC(C)(C)C)c4)n3B(c3ccccc3)c3ccccc3)nc2cc1C (centres unmarked) [III-328]	A (the solubility in water at 23 °C was 0.1 mass % or lower)	A (the absorbance ratio (500 nm/λmax) was 0.04 or lower)
814 nm	–	–	CC(CCC(COc1cccc(-c2c3/c(=C(\C#N)c4ccc5ccccc5n4)n(B(c4ccccc4)c4ccccc4)c(-c4cccc(OCC(CCC(C)CC(C)(C)C)C(C)CC(C)(C)C)c4)c3/c(=C(\C#N)c3ccc4ccccc4n3)n2B(c2ccccc2)c2ccccc2)c1)C(C)CC(C)(C)C)CC(C)(C)C (centres unmarked) [III-358]	A (the solubility in water at 23 °C was 0.1 mass % or lower)	A (the absorbance ratio (500 nm/λmax) was 0.04 or lower)
